Test results published in patent US5597823A, “Tricyclic substituted hexahydrobenz [e]isoindole alpha-1 adrenergic antagonists” (priority 1995, dated 1997).

Legend:
[1] = women during antihypertensive treatment; cited from earlier work
[2] = cited from earlier work; for urinary flow rates and subjective symptom scores: longer term studies
[3] = biological target: T1, α-1B adrenoceptor (rat spleen) (Rattus norvegicus, UniProt P15823); test: Functional antagonism: phenylephrine (PE)-induced contraction of rat spleen; type: cell-based; settings: PE-induced contraction, pA2 models compared
T1 construct: PE-induced contraction of rat spleen; from tissue; host or cells: rat spleen
T1 sequence (P15823 1-515): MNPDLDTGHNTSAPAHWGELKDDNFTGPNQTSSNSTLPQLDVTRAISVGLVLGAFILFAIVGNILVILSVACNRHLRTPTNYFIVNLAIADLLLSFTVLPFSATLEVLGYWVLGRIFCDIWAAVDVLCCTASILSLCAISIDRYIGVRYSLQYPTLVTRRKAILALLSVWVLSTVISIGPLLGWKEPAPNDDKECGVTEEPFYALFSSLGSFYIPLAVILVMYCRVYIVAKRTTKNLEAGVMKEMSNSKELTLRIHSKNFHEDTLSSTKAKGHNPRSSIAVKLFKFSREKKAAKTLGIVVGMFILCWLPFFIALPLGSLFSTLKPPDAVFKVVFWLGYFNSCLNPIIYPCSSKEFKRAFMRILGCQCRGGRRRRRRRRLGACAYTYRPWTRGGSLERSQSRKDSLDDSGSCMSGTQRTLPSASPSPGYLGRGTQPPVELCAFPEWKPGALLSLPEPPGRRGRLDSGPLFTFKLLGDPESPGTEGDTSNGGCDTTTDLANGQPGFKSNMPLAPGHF
Text: Functional assays indicative of pharmacologically defined α-1 adrenoceptors were used to further characterize compounds. Inhibition of phenylephrine (PE)-induced contraction of canine prostate smooth muscle can be correlated with α-1A adrenoceptor activation. […] For each of these models, agonist dose response curves were repeated against increasing concentrations of test agent to derive a Schild plot [log ([…]) against log (molarity of test agent)] to determine the pA2.

Row | Structure (SMILES) | urinary incontinence [1] | urinary flow rates and subjective symptom scores [2] | more potent effect on spleen smooth muscle [3] | clinical efficacy in BPH ([2]; human, in vivo)
1 | COc1cc2nc(N3CCN(C(=O)c4ccco4)CC3)nc(N)c2cc1OC [prazosin] | urinary incontinence developed in women | significant improvements in urinary flow rates and subjective symptom scores | more potent effect on spleen smooth muscle by approximately an order of magnitude | –
2 | COc1cc2nc(N3CCN(C(=O)C4CCCO4)CC3)nc(N)c2cc1OC (stereo not drawn) [terazosin] | – | significant improvements in urinary flow rates and subjective symptom scores | more potent effect on spleen smooth muscle by approximately an order of magnitude | Clinical efficacy of α-1 antagonists in BPH has been demonstrated
